Measurements published in the NIST ThermoML archive (doi:10.1016/j.jct.2015.01.014).

Details: Liquid, Transpiration method

OCCCO [propan-1,3-diol]
Details | vapor or sublimation pressure [kPa]
292.5 K | 0.00167
296.4 K | 0.00239
300.4 K | 0.00346
306.3 K | 0.00584
338.7 K | 0.08145
344.3 K | 0.1208
346.4 K | 0.139
